Experimental data taken from ChEMBL document CHEMBL3046206, “Synthesis of new 4-(2,5-dimethylpyrrol-1-yl)/4-pyrrol-1-yl benzoic acid hydrazide analogs and some derived oxadiazole, triazole and pyrrole ring systems: a novel class of potential antibacterial, antifungal and antitubercular agents” (Med Chem Res, 2013).
pIC50: −log10 of the molar value. Converted amounts (≈) assume the structure as drawn.

Columns and labels:
Pseudomonas aeruginosa = assay: Antibacterial activity against Pseudomonas aeruginosa after 18 hr by broth microdilution technique; format: functional
Klebsiella pneumoniae = assay: Antibacterial activity against Klebsiella pneumoniae after 18 hr by broth microdilution technique; format: functional
A549 = assay: Cytotoxicity against Homo sapiens (human) A549 cells after 72 hr by MTT assay; format: cell-based; settings: A549, 72 h
Enterococcus faecalis = assay: Antibacterial activity against Enterococcus faecalis after 18 hr by broth microdilution technique; format: functional
Vero = assay: Cytotoxicity against Chlorocebus aethiops (African green monkey) Vero cells after 72 hr by MTT assay; format: cell-based; settings: Chlorocebus sabaeus
Candida tropicalis = assay: Antifungal activity against Candida tropicalis after 18 hr by broth microdilution technique; format: functional
Aspergillus niger = assay: Antifungal activity against Aspergillus niger after 18 hr by broth microdilution technique; format: functional
Staphylococcus aureus = assay: Antibacterial activity against Staphylococcus aureus after 18 hr by broth microdilution technique; format: functional
Bacillus subtilis = assay: Antibacterial activity against Bacillus subtilis after 18 hr by broth microdilution technique; format: functional
Saccharomyces cerevisiae = assay: Antifungal activity against Saccharomyces cerevisiae after 18 hr by broth microdilution technique; format: functional
[1] = tested on: Mycobacterium tuberculosis; assay: Antimycobacterial activity against Mycobacterium tuberculosis H37Rv after 21 days by broth dilution method; format: functional; settings: 504 h
Escherichia coli = assay: Antibacterial activity against Escherichia coli after 18 hr by broth microdilution technique; format: functional

SMILES | MIC (Pseudomonas aeruginosa) | MIC (Klebsiella pneumoniae) | pIC50 (A549) | MIC (Enterococcus faecalis) | pIC50 (Vero) | MIC (Candida tropicalis) | MIC (Aspergillus niger) | MIC (Staphylococcus aureus) | MIC (Bacillus subtilis) | MIC (Saccharomyces cerevisiae) | MIC [1] | MIC (Escherichia coli)
Cc1ccc(C)n1-c1ccc(-c2nnc(S)o2)cc1 | 62.5 µg/mL (≈ 230 µM) | 62.5 µg/mL (≈ 230 µM) | 3.60 | 4 µg/mL (≈ 14.7 µM) | 3.58 | 2 µg/mL (≈ 7.37 µM) | 8 µg/mL (≈ 29.5 µM) | 2 µg/mL (≈ 7.37 µM) | 4 µg/mL (≈ 14.7 µM) | 8 µg/mL (≈ 29.5 µM) | 2 µg/mL (≈ 7.37 µM) | 62.5 µg/mL (≈ 230 µM)
CC(=O)N1N=C(c2ccc(-n3c(C)ccc3C)cc2)OC1c1ccccc1 (stereo not given) | 500 µg/mL (≈ 1390 µM) | 62.5 µg/mL (≈ 174 µM) | 3.70 | 62.5 µg/mL (≈ 174 µM) | 3.72 | 16 µg/mL (≈ 44.5 µM) | 31.2 µg/mL (≈ 86.9 µM) | 62.5 µg/mL (≈ 174 µM) | 16 µg/mL (≈ 44.5 µM) | 62.5 µg/mL (≈ 174 µM) | 16 µg/mL (≈ 44.5 µM) | 500 µg/mL (≈ 1390 µM)
CC(=O)N1N=C(c2ccc(-n3c(C)ccc3C)cc2)OC1c1ccccc1Cl (stereo not given) | 500 µg/mL (≈ 1270 µM) | 31.2 µg/mL (≈ 79.3 µM) | 3.69 | 31.2 µg/mL (≈ 79.3 µM) | 3.70 | 8 µg/mL (≈ 20.3 µM) | 16 µg/mL (≈ 40.6 µM) | 16 µg/mL (≈ 40.6 µM) | 8 µg/mL (≈ 20.3 µM) | 31.2 µg/mL (≈ 79.3 µM) | 8 µg/mL (≈ 20.3 µM) | 500 µg/mL (≈ 1270 µM)
CC(=O)N1N=C(c2ccc(-n3c(C)ccc3C)cc2)OC1c1ccc(Br)cc1 (stereo not given) | 500 µg/mL (≈ 1140 µM) | 31.2 µg/mL (≈ 71.3 µM) | 3.71 | 31.2 µg/mL (≈ 71.3 µM) | 3.71 | 8 µg/mL (≈ 18.3 µM) | 16 µg/mL (≈ 36.5 µM) | 16 µg/mL (≈ 36.5 µM) | 8 µg/mL (≈ 18.3 µM) | 31.2 µg/mL (≈ 71.3 µM) | 8 µg/mL (≈ 18.3 µM) | 500 µg/mL (≈ 1140 µM)
CC(=O)N1N=C(c2ccc(-n3c(C)ccc3C)cc2)OC1c1c(Cl)cccc1Cl (stereo not given) | 8 µg/mL (≈ 18.7 µM) | 62.5 µg/mL (≈ 146 µM) | 3.65 | 2 µg/mL (≈ 4.67 µM) | 3.66 | 4 µg/mL (≈ 9.34 µM) | 4 µg/mL (≈ 9.34 µM) | 2 µg/mL (≈ 4.67 µM) | 4 µg/mL (≈ 9.34 µM) | 16 µg/mL (≈ 37.4 µM) | 2 µg/mL (≈ 4.67 µM) | 16 µg/mL (≈ 37.4 µM)
CC(=O)N1N=C(c2ccc(-n3c(C)ccc3C)cc2)OC1c1cccc([N+](=O)[O-])c1 (stereo not given) | 62.5 µg/mL (≈ 155 µM) | 62.5 µg/mL (≈ 155 µM) | 3.71 | 31.2 µg/mL (≈ 77.3 µM) | 3.72 | 8 µg/mL (≈ 19.8 µM) | 8 µg/mL (≈ 19.8 µM) | 31.2 µg/mL (≈ 77.3 µM) | 16 µg/mL (≈ 39.6 µM) | 31.2 µg/mL (≈ 77.3 µM) | 31.2 µg/mL (≈ 77.3 µM) | 62.5 µg/mL (≈ 155 µM)
CC(=O)N1N=C(c2ccc(-n3c(C)ccc3C)cc2)OC1c1ccccc1[N+](=O)[O-] (stereo not given) | 500 µg/mL (≈ 1240 µM) | 500 µg/mL (≈ 1240 µM) | 3.74 | 31.2 µg/mL (≈ 77.3 µM) | 3.76 | 8 µg/mL (≈ 19.8 µM) | 8 µg/mL (≈ 19.8 µM) | 31.2 µg/mL (≈ 77.3 µM) | 16 µg/mL (≈ 39.6 µM) | 31.2 µg/mL (≈ 77.3 µM) | 31.2 µg/mL (≈ 77.3 µM) | 500 µg/mL (≈ 1240 µM)
CC(=O)N1N=C(c2ccc(-n3c(C)ccc3C)cc2)OC1c1ccc(O)cc1 (stereo not given) | 62.5 µg/mL (≈ 166 µM) | 31.2 µg/mL (≈ 83.2 µM) | 3.72 | 31.2 µg/mL (≈ 83.2 µM) | 3.73 | 8 µg/mL (≈ 21.3 µM) | 8 µg/mL (≈ 21.3 µM) | 31.2 µg/mL (≈ 83.2 µM) | 16 µg/mL (≈ 42.6 µM) | 31.2 µg/mL (≈ 83.2 µM) | 16 µg/mL (≈ 42.6 µM) | 62.5 µg/mL (≈ 166 µM)
Cc1ccc(C)n1-c1ccc(-c2n[nH]c(=S)n2N)cc1 | 500 µg/mL (≈ 1750 µM) | 500 µg/mL (≈ 1750 µM) | 3.77 | 16 µg/mL (≈ 56.1 µM) | 3.80 | 2 µg/mL (≈ 7.01 µM) | 4 µg/mL (≈ 14 µM) | 16 µg/mL (≈ 56.1 µM) | 31.2 µg/mL (≈ 110 µM) | 4 µg/mL (≈ 14 µM) | 4 µg/mL (≈ 14 µM) | 500 µg/mL (≈ 1750 µM)
CC(=O)NNC(=O)c1ccc(-n2c(C)ccc2C)cc1 | 500 µg/mL (≈ 1840 µM) | 500 µg/mL (≈ 1840 µM) | 3.74 | 31.2 µg/mL (≈ 115 µM) | 3.76 | 62.5 µg/mL (≈ 230 µM) | 62.5 µg/mL (≈ 230 µM) | 31.2 µg/mL (≈ 115 µM) | 16 µg/mL (≈ 59 µM) | 62.5 µg/mL (≈ 230 µM) | 4 µg/mL (≈ 14.7 µM) | 500 µg/mL (≈ 1840 µM)
